According to PubChem BioAssay AID2060510 (Molecular Pharmacology Branch, DTP, NCI, 2025):

Tested on: 439559-082-T-J2-PDC spheroids viability
Test: Anticancer human tumor 439559-082-T-J2-PDC patient-derived colon adenocarcinoma cell line growth inhibition [GQUAD]
Conditions: for IC50: curve of first compound; for viability, T/C: stronger effect = lower value
Excerpt: DNA G-quadruplex Stabilizer Agents in Combinations in Complex Spheroids
A high-throughput screen of multi-cell type tumor spheroids was designed to identify active combinations of DNA G-quadruplex stabilizer agents and targeted small molecules. Complex spheroids include a stromal component modeled by human endothelial cells (HUVEC) and fibroblasts modeled by human mesenchymal stem cells (MSCs). The concentration ranges selected for each drug and investigational agent were based upon clinically achievable concentrations if the clinical Cmax of the agent was known.
Compounds. The drugs and investigational agents: pidnarulex (CX-5461; NSC782164), APTO-253 (NSC789042), BRACO-19 (NSC847499), peposertib (NSC802822), ceralasertib (NSC780249), elimusertib (NSC800525), camonsertib (NSC841442), AZD-1390 (NSC803789), olaparib (NSC753686), talazoparib (NSC767125), ART-558 (NSC835418), sotorasib (NSC818433), MRTX-1133 (NSC836407), SN-38 (NSC673596), topotecan (NSC609699), etoposide (NSC141540), doxorubicin (NSC123127), gemcitabine (NSC613327), 5-fluorouracil (NSC19893), paclitaxel (NSC125973), vemurafenib (NSC761431), panobinostat (NSC761190), R-306465 (JNJ-16241199; NSC773264), adavosertib (NSC754352), TP-3654 (NSC805149), carboplatin (NSC241240), KSQ-4279 (NSC840948), and staurosporine (NSC755774) were obtained from the National Cancer Institute (NCI) Developmental Therapeutics Program Chemical Repository (34). The FDA-approved anticancer drug set is available from the NCI Developmental Therapeutics Program. […] The stock solutions were prepared in dimethyl sulfoxide (DMSO, Sigma-Aldrich, St. Louis, MO, cat. D2650) at 800-fold the tested concentration and stored at -70 degrees C prior to their use. All drugs and investigational agents were tested over a range starting from a high concentration at or near the clinical Cmax and decreasing in half-log increments. If the clinical Cmax for an agent had not been determined, the highest concentration tested was 10 microM.
2.3 Cell Culture. All cells were maintained in an incubator at 37 degrees C and 5% CO2 with 95% humidity. The PDC lines were cultured according to standard operating procedures established by the NCI PDMR. All PDCs were thawed and cultured in Matrigel-coated flasks prepared with a working solution of 1X Ham's F-12 nutrient mix, without supplementation (Invitrogen, cat. 11765054), 100 U/mL penicillin-streptomycin (Invitrogen, cat. 15140122), and 2.5% Matrigel (Corning Inc., cat. 354248) for the first three passages. The 857933-349-R-J2-PDC line was cultured in 6C/Colon 1B media, which includes advanced DMEM/F-12 (Thermo Fisher Scientific, cat. 12634028), 10 mM HEPES (Thermo Fisher Scientific, cat. 15630080), 1X GlutaMAX supplement (Thermo Fisher Scientific, cat. 35050061), 0.1 mg/mL primocin (InvivoGen, cat. ant-pm-2), 10% defined fetal bovine serum, heat inactivated (HyClone Laboratories Inc., cat. SH30070.03HI), 50% L-WRN conditioned media (ATCC, cat. CRL-3276), 1.25 mM N-Acetyl-L-cysteine (Sigma-Aldrich, cat. A9165), 10 mM nicotinamide (Sigma-Aldrich, cat. N0636), 1X B-27 supplement (Thermo Fisher Scientific, cat. 17504044), 1X N-2 supplement (Thermo Fisher Scientific, cat. 17502048), 10 microM Y-27632 dihydrochloride (Tocris Bioscience, cat. 1254), and 50 ng/mL human EGF recombinant protein (Thermo Fisher Scientific, cat. PHG0311). The 485176-168-R4-J1-PDC line was cultured in Panc media, which includes all 6C/Colon 1B media components plus 100 ng/mL human FGF-10 (Thermo Fisher Scientific, cat. 100-26), 500 nM SB-431542 (Selleckchem, cat. S1067), and gastrin (Tocris, cat. 3006).
[…]

[1] = second compound 0.0316 µM, first compound 0.0316 µM
[2] = second compound 0.0316 µM, first compound 0.1 µM
[3] = second compound 0.0316 µM, first compound 0.316 µM
[4] = second compound 0.0316 µM, first compound 1 µM
[5] = second compound 0.0316 µM, first compound 3.16 µM
[6] = second compound 0.0316 µM, first compound 10 µM
[7] = second compound 0.1 µM, first compound 0.0316 µM
[8] = second compound 0.1 µM, first compound 0.1 µM
[9] = second compound 0.1 µM, first compound 0.316 µM
[10] = second compound 0.1 µM, first compound 1 µM
[11] = second compound 0.1 µM, first compound 3.16 µM
[12] = second compound 0.1 µM, first compound 10 µM
[13] = second compound 0.316 µM, first compound 0.0316 µM
[14] = second compound 0.316 µM, first compound 0.1 µM
[15] = second compound 0.316 µM, first compound 0.316 µM
[16] = second compound 0.316 µM, first compound 1 µM
[17] = second compound 0.316 µM, first compound 3.16 µM
[18] = second compound 0.316 µM, first compound 10 µM
[19] = second compound 1 µM, first compound 0.0316 µM
[20] = second compound 1 µM, first compound 0.1 µM
[21] = second compound 1 µM, first compound 0.316 µM
[22] = second compound 1 µM, first compound 1 µM
[23] = second compound 1 µM, first compound 3.16 µM
[24] = second compound 1 µM, first compound 10 µM
[25] = second compound 3.16 µM, first compound 0.0316 µM
[26] = second compound 3.16 µM, first compound 0.1 µM
[27] = second compound 3.16 µM, first compound 0.316 µM
[28] = second compound 3.16 µM, first compound 1 µM
[29] = second compound 3.16 µM, first compound 3.16 µM
[30] = second compound 3.16 µM, first compound 10 µM
[31] = second compound 10 µM, first compound 0.0316 µM
[32] = second compound 10 µM, first compound 0.1 µM
[33] = second compound 10 µM, first compound 0.316 µM
[34] = second compound 10 µM, first compound 1 µM
[35] = second compound 10 µM, first compound 3.16 µM
[36] = second compound 10 µM, first compound 10 µM
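Further: spheroids exposed to the agents for 7 days before readout.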
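Wherever viability, T/C is given: percent of luminescence signal in DMSO vehicle wells taken as 100% viability.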

Work on CC(C)n1c(=O)n(C)c2cnc3cc(F)c(-c4ccc(OCCCN5CCCCC5)nc4)cc3c21 + CN(C)c1ccc(Nc2c3ccc(NC(=O)CCN4CCCC4)cc3nc3cc(NC(=O)CCN4CCCC4)ccc23)cc1 yielded an IC50 (second compound 0.0316 µM) greater than 10000 nM, an IC50 (second compound 0.1 µM) greater than 10000 nM and an IC50 (second compound 0.316 µM) greater than 10000 nM. The IC50 (second compound 1 µM) was greater than 10000 nM, the IC50 (second compound 3.16 µM) was greater than 10000 nM and the IC50 (second compound 10 µM) was greater than 10000 nM. It also gave a viability, T/C [1] of 108%, a viability, T/C [2] of 98.2% and a viability, T/C [3] of 118%. It also gave a viability, T/C [4] of 116%, a viability, T/C [5] of 122% and a viability, T/C [6] of 91.8%. It also gave a viability, T/C [7] of 105%, a viability, T/C [8] of 112% and a viability, T/C [9] of 115%. For the same compound, the viability, T/C [10] was 119%, the viability, T/C [11] was 113% and the viability, T/C [12] was 91.9%. It also gave a viability, T/C [13] of 94.5%, a viability, T/C [14] of 113% and a viability, T/C [15] of 115%. The viability, T/C [16] was 122%, the viability, T/C [17] was 117% and the viability, T/C [18] was 100%. The viability, T/C [19] was 101%, the viability, T/C [20] was 105% and the viability, T/C [21] was 111%. It also gave a viability, T/C [22] of 113%, a viability, T/C [23] of 109% and a viability, T/C [24] of 99.6%. For the same compound, the viability, T/C [25] was 105%, the viability, T/C [26] was 113% and the viability, T/C [27] was 121%. For the same compound, the viability, T/C [28] was 108%, the viability, T/C [29] was 117% and the viability, T/C [30] was 83.5%. It also gave a viability, T/C [31] of 100%, a viability, T/C [32] of 92% and a viability, T/C [33] of 99%. It also gave a viability, T/C [34] of 112%, a viability, T/C [35] of 112% and a viability, T/C [36] of 59.4%.
With CC1COCCN1c1cc(-c2ccnn2C)c2ccnc(-c3ccn[nH]3)c2n1 (centres undefined) + CN(C)c1ccc(Nc2c3ccc(NC(=O)CCN4CCCC4)cc3nc3cc(NC(=O)CCN4CCCC4)ccc23)cc1 the IC50 (second compound 0.0316 µM) was 237 nM, the IC50 (second compound 0.1 µM) was 261 nM and the IC50 (second compound 0.316 µM) was 224 nM. For the same compound, the IC50 (second compound 1 µM) was 248 nM, the IC50 (second compound 3.16 µM) was 221 nM and the IC50 (second compound 10 µM) was 229 nM. For the same compound, the viability, T/C [1] was 97.9%, the viability, T/C [2] was 72.7% and the viability, T/C [3] was 41.9%. It also gave a viability, T/C [4] of 34.6%, a viability, T/C [5] of 35.3% and a viability, T/C [6] of 28.8%. The viability, T/C [7] was 104%, the viability, T/C [8] was 74.4% and the viability, T/C [9] was 43.1%. For the same compound, the viability, T/C [10] was 32.9%, the viability, T/C [11] was 30.9% and the viability, T/C [12] was 21.5%. It also gave a viability, T/C [13] of 97.1%, a viability, T/C [14] of 80.7% and a viability, T/C [15] of 36.7%. It also gave a viability, T/C [16] of 30.3%, a viability, T/C [17] of 30.2% and a viability, T/C [18] of 24.2%. For the same compound, the viability, T/C [19] was 89.6%, the viability, T/C [20] was 89.1% and the viability, T/C [21] was 39.5%. It also gave a viability, T/C [22] of 34.3%, a viability, T/C [23] of 32.6% and a viability, T/C [24] of 26.4%. The viability, T/C [25] was 90%, the viability, T/C [26] was 75.1% and the viability, T/C [27] was 38.9%. The viability, T/C [28] was 28.6%, the viability, T/C [29] was 30.1% and the viability, T/C [30] was 28.8%. The viability, T/C [31] was 92.9%, the viability, T/C [32] was 75.8% and the viability, T/C [33] was 40.4%. It also gave a viability, T/C [34] of 27.8%, a viability, T/C [35] of 37.1% and a viability, T/C [36] of 25.1%.
